Measurements reported in patent US20250092065A1, “2-(INDAZOL-5-YL)-6-(PIPERIDIN-4-YL)-1,7-NAPHTHYRIDINE DERIVATIVES AND RELATED COMPOUNDS AS MODULATORS FOR SPLICING NUCLEIC ACIDS AND FOR THE TREATMENT OF PROLIFERATIVE DISEASES” (REMIX THERAPEUTICS INC., priority 2022, published 2025).
Counter-ions that a name gives are not always drawn.

What was measured:
MYB = experiment: HiBiT protein abundance assay, MYB (K562 HiBiT knock-in); assay type: cell-based, human; conditions: HiBiT knock-in K562 cells, 24 hours, top dose 10 μM
In short: (§1)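 Endogenously HiBiT-tagged K562 lines were treated for 24 h at 37 °C with 10-point 3-fold dilutions (top 10 μM final, DMSO ≤0.25%). Lytic LgBiT complementation luminescence was normalized between unmodified K562 (PC) and DMSO-treated tagged cells (NC); IC50 was interpolated at 50% from a four-parameter logistic fit.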

HTT = experiment: HiBiT protein abundance assay, HTT (K562 HiBiT knock-in); assay type: cell-based, human; conditions: HiBiT knock-in K562 cells, 24 hours, top dose 10 μM
In short: as §1

Target C [1] = experiment: RT-qPCR canonical junction panel assay, Target C mRNA; assay type: cell-based; conditions: Table 4, read-out: Target C IC50 (decrease in CJ mRNA levels)
In short: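 A673 or K562 cells treated with compound; CJ mRNA quantified by junction-spanning RT-qPCR probe after cDNA synthesis, normalised to GAPDH, GUSB or PPIA and DMSO (2^−ΔΔCt), scaled to set ΔCt assay window; IC50 from 4-parameter fit of CJ decrease.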

K562 cells = experiment: Cell Titer Glo 2.0 cell viability (toxicity) assay, K562; conditions: 500 cells/well, 72 hours
Target C [2] = experiment: HiBiT protein abundance assay, Target C (K562 HiBiT knock-in); assay type: cell-based, human; conditions: HiBiT knock-in K562 cells, 24 hours, top dose 10 μM
In short: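 K562 HiBiT knock-in cells (10000/well) were treated 24 h at 37° C with a 10-point 3-fold dilution series (top 10 μM final, ≤0.25% DMSO). HiBiT luminescence was read after lytic LgBiT detection. Percent response used unmodified K562 and DMSO-treated knock-in controls, and IC50 came from a four-parameter fit at 50% of untreated.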

SMILES: Cc1nc2c(C)c(O)c(-c3ccc4cc(N5CC[C@@H](NC6CC6)C5)ncc4n3)cc2o1 [Compound 440, 6-{6-[(3R)-3-(cyclopropylamino)pyrrolidin-1-yl]-1,7-naphthyridin-2-yl}-2,4-dimethyl-1,3-benzoxazol-5-ol]
- IC50 (MYB): 100 to 1000 nM
- IC50 (HTT): < 100 nM
- IC50 (Target C [1]): 100 to 1000 nM
- Effect of Exemplary Compounds on Cell Viability, K562 (K562 cells): B (B represents 100-1000 nM)
- IC50 (Target C [2]): < 100 nM

SMILES: Cc1nc2c(C)c(O)c(-c3ccc4cc(N5CC[C@H](NC6CC6)C5)ncc4n3)cc2o1 [Compound 441, 6-{6-[(3S)-3-(cyclopropylamino)pyrrolidin-1-yl]-1,7-naphthyridin-2-yl}-2,4-dimethyl-1,3-benzoxazol-5-ol]
- IC50 (MYB): 1000 to 10000 nM
- IC50 (HTT): 100 to 1000 nM
- IC50 (Target C [1]): 100 to 1000 nM
- Effect of Exemplary Compounds on Cell Viability, K562 (K562 cells): B (B represents 100-1000 nM)
- IC50 (Target C [2]): 100 to 1000 nM

SMILES: Cn1cc2cc(-c3ccc4nc(C5CCNC6(CC6)C5)ncc4n3)c(O)cc2n1 (stereo not shown) [Compound 448, 5-(2-{4-azaspiro[2.5]octan-7-yl}pyrido[3,2-d]pyrimidin-6-yl)-2-methylindazol-6-ol]
- IC50 (MYB): 100 to 1000 nM
- IC50 (HTT): 100 to 1000 nM
- IC50 (Target C [1]): 1000 to 10000 nM
- Effect of Exemplary Compounds on Cell Viability, K562 (K562 cells): C (C represents 1000-9999 nM)
- IC50 (Target C [2]): 100 to 1000 nM

SMILES: Cn1cc2cc(-c3ccc4cc(N5CCC(NC(C)(C)C)C5)ncc4n3)c(O)cc2n1 (stereo not shown) [Compound 449, 5-{6-[3-(tert-butylamino)pyrrolidin-1-yl]-1,7-naphthyridin-2-yl}-2-methylindazol-6-ol]
- IC50 (MYB): 100 to 1000 nM
- IC50 (HTT): 100 to 1000 nM
- IC50 (Target C [1]): 1000 to 10000 nM
- Effect of Exemplary Compounds on Cell Viability, K562 (K562 cells): B (B represents 100-1000 nM)
- IC50 (Target C [2]): 100 to 1000 nM

SMILES: Cc1nc2cc(O)c(-c3ccc4cc(N5CC[C@H](NC(C)(C)C)C5)ncc4n3)cc2o1 [Compound 450]
- IC50 (MYB): 1000 to 10000 nM
- IC50 (HTT): 1000 to 10000 nM
- IC50 (Target C [1]): 1000 to 10000 nM
- Effect of Exemplary Compounds on Cell Viability, K562 (K562 cells): C (C represents 1000-9999 nM)
- IC50 (Target C [2]): 1000 to 10000 nM

SMILES: Cc1c(O)c(-c2cc(Cl)c3cc(N4CCNCC4)cc(C)c3n2)cc2cn(C)nc12 [Compound 482, 5-[4-chloro-8-methyl-6-(piperazin-1-yl)577yrrolidi-2-yl]-2,7-dimethylindazol-6-ol hydrochloride]
- IC50 (MYB): < 100 nM
- IC50 (HTT): 100 to 1000 nM
- IC50 (Target C [1]): 1000 to 10000 nM
- Effect of Exemplary Compounds on Cell Viability, K562 (K562 cells): A (A represents <100 nM)
- IC50 (Target C [2]): 100 to 1000 nM

SMILES: Cc1cc2nc(-c3cc4cn(C)nc4c(C)c3O)cc(Cl)c2cc1N1CCNCC1 [Compound 484, 5-[4-chloro-7-methyl-6-(piperazin-1-yl)586yrrolidi-2-yl]-2,7-dimethylindazol-6-ol]
- IC50 (MYB): 100 to 1000 nM
- IC50 (HTT): 1000 to 10000 nM
- IC50 (Target C [1]): 1000 to 10000 nM
- Effect of Exemplary Compounds on Cell Viability, K562 (K562 cells): B (B represents 100-1000 nM)
- IC50 (Target C [2]): 1000 to 10000 nM

SMILES: CNC1CCN(c2cc3c(Cl)cc(-c4cc5cn(C)nc5c(C)c4O)nc3cc2C)C1 (stereo not shown) [Compound 486, 5-{4-chloro-7-methyl-6-[3-(methylamino)pyrrolidin-1-yl]quinolin-2-yl}-2,7-dimethylindazol-6-ol]
- IC50 (MYB): 100 to 1000 nM
- IC50 (HTT): 1000 to 10000 nM
- IC50 (Target C [1]): 1000 to 10000 nM
- Effect of Exemplary Compounds on Cell Viability, K562 (K562 cells): B (B represents 100-1000 nM)
- IC50 (Target C [2]): 1000 to 10000 nM
